{
  "source": "paper PMC6208908",
  "about": "“Field template-based design and biological evaluation of new sphingosine kinase 1 inhibitors” (Breast Cancer Research and Treatment, 2018)",
  "key": {"[1]": {"molecular_target": "T1, endogenous SK1 in MDA-MB-231 cells (Homo sapiens, UniProt Q9NYA1)", "T1 construct": "We treated MDA-MB-231 cells with 1 µM of compounds SK-A – SK-F and SKI-II as the positive control for 6 h; endogenous in cells; host or cells: MDA-MB-231", "T1 sequence (Q9NYA1 whole entry)": "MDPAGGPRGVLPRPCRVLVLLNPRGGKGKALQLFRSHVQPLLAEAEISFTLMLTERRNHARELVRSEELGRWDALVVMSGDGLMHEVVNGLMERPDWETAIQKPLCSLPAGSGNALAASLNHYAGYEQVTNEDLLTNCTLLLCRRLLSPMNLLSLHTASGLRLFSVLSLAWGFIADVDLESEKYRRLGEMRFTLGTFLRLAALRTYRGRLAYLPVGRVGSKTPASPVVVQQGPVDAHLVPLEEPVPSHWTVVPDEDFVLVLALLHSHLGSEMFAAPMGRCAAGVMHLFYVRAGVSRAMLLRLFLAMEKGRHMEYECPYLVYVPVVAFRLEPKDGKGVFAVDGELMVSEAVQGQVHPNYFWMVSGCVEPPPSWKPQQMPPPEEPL", "assay": "SK1 activity in lysates of treated MDA-MB-231 cells", "format": "cell-based", "details": "6 h", "procedure": "After incubation, cells were washed with ice-cold phosphate-buffered saline (PBS) and harvested.\n(§1) SK assay was performed using radiolabeling as previously described, in conditions favouring SK1 or SK2 activity as required.\n(§2) Fig. 2 Inhibition of sphingosine kinase 1 in cell-free extract and in vitro. a 1 µM of compounds SK-A to SK-F and SKI-II (commercial inhibitor of SK used as a positive control) were incubated in the presence of recombinant SK1 extract (in excess), 1 µM of ATP, and 1 µM exogenous sphingosine for 1 h. b MDA-MB-231 cells were incubated with 1 µM of compounds SK-A to SK-F and SKI-II for 6 h. SK1 activity was measured as described in materials and methods. Columns, means of three independent experiments normalised to vehicle; bars, SEM. (ns, non-significant; *p < 0.05; **p < 0.01)\nReportedly, among human tumour cell lines, the breast cancer cell line MDA-MB-231 expresses high levels of SK activity. We treated MDA-MB-231 cells with 1 µM of compounds SK-A – SK-F and SKI-II as the positive control for 6 h and analysed SK1 activity in the cell lysates using SK1 activity assay."}, "[2]": {"assay": "Whole-body toxicity: body and organ weights, full blood count", "format": "in vivo, BALB/c nude mice", "details": "5 mg/kg each drug i.p. twice a week for 2 weeks, 4T1 tumour-bearing mice", "procedure": "(§3) Breast cancer allografts were established in 6–8-week-old BALB/c nude mice by injection of 10^6 4T1 cells into their mammary pad. Two weeks after implantation, mice were randomised into treatment groups (n = 6/group) and treated twice a week for 2 weeks with intraperitoneal injections of dimethyl sulfoxide (DMSO), 5 mg/kg DTX, 5 mg/kg SK-F, 5 mg/kg DTX + 5 mg/kg SK-F. One day after the last treatment, all mice were euthanized and blood was collected. Tumour long and short radii were measured using calipers and tumour volume (v) was calculated using the formula v = 4/3 πab^2 (a – long radius, b – short radius). Mice and individual organs were weighed and primary tumours were then processed for analysis of SK1 activity as described above. Full blood count and liver function test analysis was done in the Hammersmith hospital biochemical lab.\nTumour-bearing mice were divided into four groups (n = 6) and injected with: DMSO, 5 mg/kg DTX, 5 mg/kg SK-F, 5 mg/kg DTX + 5 mg/kg SK-F. Two weeks after the tumour cells inoculation, we began intraperitoneal injections of drug preparations and continued these twice a week for two weeks. Based on our previous studies, we have chosen relatively smaller doses of SK-F and DTX in order to investigate their combined effect and potential chemosensitisation of breast tumours to taxane therapies. In the control group, tumours grew progressively and rapidly (Fig. 5a). […] Five mg/kg DTX has induced a significant reduction in tumour volume to 281 mm^3. The biggest reduction in tumour volume to 159 mm^3 was observed when DTX was combined with SK-F (Fig. 5a). […] We have further investigated the effects of the used treatments on mouse whole-body toxicity. DTX has reduced body and liver weight, while SK-F had no significant effect (Table 1). DTX has induced significant anaemia and leukopenia, while the effects of SK-F were very moderate. In all cases, the effects of combined therapy were similar to DTX alone (Table 1). Liver function test was performed as a surrogate marker for chemotherapy-induced liver damage (Fig. 6). […] The combination therapy had similar toxicity profile to DTX alone, while exerting higher antitumour efficacy (Fig. 5a)."}, "SK1 mRNA": {"test_system": "SK1 mRNA", "assay": "SK1 mRNA expression by qRT-PCR in MDA-MB-231 cells", "format": "cell-based, human", "details": "1, 2, 5 and 10 µM, 24 h", "procedure": "Isolation of total RNA from MDA-MB-231 cells was performed using the RNeasy Mini kit (Qiagen, Valencia, CA, USA) as per manufacturer’s instructions. RNA quantity and purity were measured using a NanoDrop ND-1000 Spectrophotometer (Thermo Fisher Scientific, Loughborough, UK). Reverse transcription was performed using precision nanoScript™ reverse transcription kit (PrimerDesign Ltd, Southampton, UK). qRT-PCR was done as already described. Ct values were exported and analysed using qbase software (Biogazelle NV, Zwijnaarde, Belgium).\nFig. 3 Effect of compounds SK-A to SK-F on SK1 mRNA levels. MDA-MB-231 cells were incubated with 1, 2, 5 and 10 µM of compounds SK-A to SK-F for 24 h. SK1 mRNA expression was measured by qRT-PCR. Columns, means of three independent experiments normalised to control; bars, SEM. (*p < 0.05; **p < 0.01)"}, "tumour SK1": {"molecular_target": "T2, tumour SK1 (Mus musculus, UniProt Q8CI15)", "T2 construct": "primary tumours were then processed for analysis of SK1 activity as described above; from tissue; host or cells: 4T1 breast tumour allografts from BALB/c nude mice", "T2 sequence (Q8CI15 whole entry)": "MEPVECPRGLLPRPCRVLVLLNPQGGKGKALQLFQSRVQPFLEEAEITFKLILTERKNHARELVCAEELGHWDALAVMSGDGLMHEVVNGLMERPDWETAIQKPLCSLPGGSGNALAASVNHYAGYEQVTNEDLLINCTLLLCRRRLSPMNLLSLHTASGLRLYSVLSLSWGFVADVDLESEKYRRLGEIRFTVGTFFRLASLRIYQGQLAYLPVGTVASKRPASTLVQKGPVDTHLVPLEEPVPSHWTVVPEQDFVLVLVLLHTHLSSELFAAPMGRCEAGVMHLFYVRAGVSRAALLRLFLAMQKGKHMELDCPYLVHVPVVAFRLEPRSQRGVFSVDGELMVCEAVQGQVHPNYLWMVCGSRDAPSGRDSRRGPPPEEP", "assay": "SK1 activity in 4T1 allograft tumours", "format": "in vivo, BALB/c nude mice", "details": "5 mg/kg each drug i.p. twice a week for 2 weeks", "procedure": "as §3\nFig. 5 Effect of compound SK-F on breast tumour growth and SK1 activity. […] Two weeks after implantation, mice were randomised into treatment groups (n = 6/group) and treated twice a week for 2 weeks with intraperitoneal injections of: DMSO, 5 mg/kg DTX, 5 mg/kg SK-F, 5 mg/kg DTX + 5 mg/kg SK-F. a Tumour volume in the different treatment groups of 4T1 breast cancer implanted in mouse mammary fat pad. b SK1 activity in tumours was measured using radiolabelling. […]"}, "recombinant SK1": {"molecular_target": "recombinant SK1 (Homo sapiens, UniProt Q9NYA1)", "sequence (Q9NYA1 whole entry)": "as the sequence (Q9NYA1 whole entry) above", "assay": "SK1 activity assay, cell-free (recombinant SK1 extract, radiolabelling)", "format": "biochemical", "procedure": "as §1\nThe synthesised compounds were then screened for SK1 inhibition. Compounds SK-A to SK-F and SKI-II (commercial inhibitor of SK used as positive control with reported IC50 0.5 µM [14]) at 1 µM were incubated in the presence of recombinant SK1 extract (in excess), 1 µM of ATP, and exogenous 1 µM sphingosine for 1 h followed by measurement of SK1 activity.\nas §2\nSK1 activity was determined in the presence of triton X-100 and SK2 activity was measured in the presence of high salt concentrations, conditions that favour SK1 and SK2, respectively. […] Km for SK1 was 6.97 ± 1.20 µM, Vmax 98 ± 4 µM/min/mg protein and Ki for SK-F 0.46 ± 0.1 µM. […] Some SK inhibitors such as SKI-II were previously shown to induce proteasomal degradation of SK1 [48, 49]."}},
  "note": "Entries after “also recorded” stand apart in the source; their conditions may differ. Marks after values point to notes of the source that are not given here.",
  "data": [
    {"smiles": "CCCCCCCCc1ccc(NC(=O)c2ccccc2)cc1", "note": "[SK-F]", "values": [
      {"measurement": "SK1 activity in cells versus vehicle", "setting": "[1]; 1 µM", "result": "significantly decreased"},
      {"measurement": "inhibition at 1 µM", "setting": "[1]; read-out: inhibition of SK1 activity in vitro", "result": 48.2, "unit": "%"},
      {"measurement": "Hb", "setting": "[2]", "result": "90 ± 8^a % of control ± SEM"},
      {"measurement": "WCC", "setting": "[2]", "result": "78 ± 7 % of control ± SEM"},
      {"measurement": "Weight of Body", "setting": "[2]", "result": "91 ± 6^ns % of control ± SEM"},
      {"measurement": "Weight of Kidney", "setting": "[2]", "result": "118.2 ± 3.6 % of control ± SEM"},
      {"measurement": "Weight of Liver", "setting": "[2]", "result": "106.7 ± 5.5^a % of control ± SEM"},
      {"measurement": "Weight of Lungs", "setting": "[2]", "result": "117.7 ± 5.6 % of control ± SEM"},
      {"measurement": "Weight of Spleen", "setting": "[2]", "result": "111.2 ± 13.4^a % of control ± SEM"},
      {"measurement": "effect on SK1 mRNA expression", "setting": "SK1 mRNA", "result": "did not elicit any changes"},
      {"measurement": "tumour SK1 activity", "setting": "tumour SK1", "result": "significantly reduced"},
      {"measurement": "inhibition of SK1 activity in cell-free settings", "setting": "recombinant SK1; 1 µM compound, recombinant SK1 extract in excess, 1 µM ATP, 1 µM sphingosine, 1 h", "result": "most potent inhibitor of SK1 activity; also recorded: statistically significant inhibition"},
      {"measurement": "IC50", "setting": "recombinant SK1; Figure S7, read-out: IC50 for purified enzyme (SK1 activity dose response)", "result": 920, "unit": "nM"},
      {"measurement": "mode of SK1 inhibition", "setting": "recombinant SK1; Lineweaver-Burk plot, increasing sphingosine (Figure S8A)", "result": "competitive inhibitor"},
      {"measurement": "Ki", "setting": "recombinant SK1; recombinant SK1, increasing sphingosine, triton X-100, Lineweaver-Burk", "result": "460 ± 100", "unit": "nM"}
    ]}
  ]
}
